Data published in PubChem BioAssay (NCI).
Several values for one entry are separate records, joined by “and”; a condition that tells them apart may be missing. Equal entries are not always repeated.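 Five concentrations, 48 hours, 96-well plates. Abbreviation: GI50, concentration required for 50% inhibition of growth. TGI: concentration producing complete growth inhibition.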

Columns and labels:
Test in all cases: growth of human tumour cells (NCI), 48 h
[1] = tested on: SK-MEL-28 melanoma
[2] = tested on: SNB-19 CNS
[3] = tested on: T-47D breast
[4] = tested on: HL-60(TB) leukemia
[5] = tested on: SW-620 colon
[6] = tested on: HS 578T breast
[7] = tested on: KM12 colon
[8] = tested on: OVCAR-4 ovarian
[9] = tested on: SK-MEL-2 melanoma
[10] = tested on: SF-539 CNS
[11] = tested on: CAKI-1 renal
[12] = tested on: HCT-15 colon
[13] = tested on: SF-268 CNS
[14] = tested on: IGROV1 ovarian
[15] = tested on: SR leukemia
[16] = tested on: NCI-H460 lung
[17] = tested on: MOLT-4 leukemia
[18] = tested on: UACC-62 melanoma
[19] = tested on: UO-31 renal
[20] = tested on: NCI-H522 lung
[21] = tested on: NCI-H226 lung
[22] = tested on: HCT-116 colon
[23] = tested on: M14 melanoma
[24] = tested on: K-562 leukemia
[25] = tested on: PC-3 prostate
[26] = tested on: A549 NSCLC
[27] = tested on: ACHN renal
[28] = tested on: RXF 393 renal
[29] = tested on: A498 renal
[30] = tested on: NCI-H23 lung
[31] = tested on: EKVX NSCLC
[32] = tested on: HOP-92 NSCLC
[33] = tested on: OVCAR-8 ovarian
[34] = tested on: OVCAR-3 ovarian
[35] = tested on: TK-10 renal
[36] = tested on: OVCAR-5 ovarian
[37] = tested on: SNB-75 CNS
[38] = tested on: CCRF-CEM leukemia
[39] = tested on: SK-MEL-5 melanoma
[40] = tested on: SN12C renal
[41] = tested on: BT-549 breast
[42] = tested on: MALME-3M melanoma
[43] = tested on: SK-OV-3 ovarian
[44] = tested on: NCI/ADR-RES ovarian
[45] = tested on: MDA-MB-435
[46] = tested on: HCC-2998 colon
[47] = tested on: COLO 205 colon
[48] = tested on: RPMI-8226 leukemia
[49] = tested on: SF-295 CNS
[50] = tested on: DU-145 prostate
[51] = tested on: U251 CNS
[52] = tested on: MDA-MB-231 breast
[53] = tested on: 786-0 renal
[54] = tested on: MCF7 breast
[55] = tested on: UACC-257 melanoma
[56] = tested on: HOP-62 NSCLC
[57] = tested on: HT29 colon
[58] = tested on: LOX IMVI melanoma

**Q.** What does the source list for `CCOc1cc2ncc(C#N)c(Nc3ccc(OCc4ccccn4)c(Cl)c3)c2cc1NC(=O)/C=C/CN(C)C`?
**A.** GI50 [1]: 1.41 µM and 2.36 µM; TGI [1]: 2.96 µM and > 10 µM; GI50 [2]: 2.52 µM; TGI [2]: 22.9 µM and > 10 µM; TGI [3]: 29.7 µM and > 2.61 µM; GI50 [4]: 0.855 µM and 0.822 µM; TGI [4]: 12.9 µM and 2.73 µM; GI50 [5]: 0.638 µM and 0.53 µM; TGI [5]: 2.41 µM and 3.02 µM; GI50 [6]: 0.54 µM and 0.351 µM; TGI [6]: 66.6 µM and > 5.76 µM; GI50 [7]: 1.52 µM and 1.98 µM; TGI [7]: 5.29 µM and > 7.34 µM; GI50 [8]: 0.49 µM and 0.48 µM; TGI [8]: 2.44 µM and > 10 µM; GI50 [9]: 0.291 µM and 0.377 µM; TGI [9]: 2.51 µM and > 4.63 µM; GI50 [10]: 4.24 µM and > 4.3 µM; TGI [10]: 11.5 µM and > 9.31 µM; GI50 [11]: 0.0564 µM and 0.146 µM; TGI [11]: 12.5 µM and > 9.09 µM; GI50 [12]: 0.475 µM and 0.404 µM; TGI [12]: 7.97 µM and 5.67 µM; GI50 [13]: 0.563 µM; TGI [13]: > 10 µM; GI50 [14]: 0.121 µM and 0.0191 µM; TGI [14]: 5.7 µM and 1.84 µM; GI50 [15]: 0.413 µM; TGI [15]: > 3.38 µM; GI50 [16]: 1.01 µM and 0.891 µM; TGI [16]: 2.88 µM and > 9.38 µM; GI50 [17]: 0.672 µM and 0.463 µM; TGI [17]: 20.3 µM and > 5.61 µM; GI50 [18]: 1.28 µM and 0.842 µM; TGI [18]: 3.87 µM and > 10 µM; GI50 [19]: 0.122 µM and 0.133 µM; TGI [19]: 1.57 µM and 2.73 µM; GI50 [20]: < 0.01 µM and 0.00351 µM; TGI [20]: 0.0818 µM and 0.706 µM; GI50 [21]: 6.06 µM and 1.69 µM; TGI [21]: 26.7 µM and > 7.67 µM; GI50 [22]: 0.568 µM and 0.615 µM; TGI [22]: 2.08 µM and 2.05 µM; GI50 [23]: 0.392 µM and 0.38 µM; TGI [23]: 1.95 µM and 1.58 µM; GI50 [24]: 1.41 µM and 0.606 µM; TGI [24]: 3.27 µM and 3.36 µM; GI50 [25]: 1.93 µM and 1.31 µM; TGI [25]: 8.36 µM and > 9.32 µM; GI50 [26]: 0.371 µM and 0.377 µM; TGI [26]: 1.94 µM and > 10 µM; GI50 [27]: 0.0358 µM and 0.0817 µM; TGI [27]: 4.14 µM and > 10 µM; GI50 [28]: 0.421 µM; TGI [28]: 2.28 µM; GI50 [29]: 0.124 µM and 0.153 µM; GI50 [30]: 2.63 µM and > 4.56 µM; TGI [30]: 22.2 µM and > 10 µM; GI50 [31]: 0.0183 µM and 0.0189 µM; TGI [31]: 25.6 µM and > 6.84 µM; TGI [32]: 22.8 µM and 4.06 µM; GI50 [33]: 0.28 µM and 0.339 µM; TGI [33]: 1.65 µM and > 4.46 µM; GI50 [34]: 1.05 µM and 0.49 µM; TGI [34]: 20.2 µM and > 6.8 µM; GI50 [35]: < 0.0117 µM and 0.0127 µM; GI50 [36]: 0.416 µM and 0.351 µM; TGI [36]: 7.82 µM and > 10 µM; GI50 [37]: 0.915 µM and 0.362 µM; TGI [37]: 5.87 µM and > 5.3 µM; GI50 [38]: 1.3 µM and 2.44 µM; TGI [38]: 4.95 µM and > 6.11 µM; GI50 [39]: 1.14 µM and 1.82 µM; TGI [39]: 6.21 µM and 4.02 µM; GI50 [40]: 0.274 µM and 0.236 µM; TGI [40]: 4.6 µM and > 10 µM; GI50 [41]: 1.97 µM and 0.921 µM; TGI [41]: 22 µM and > 7.85 µM; GI50 [42]: 0.61 µM; TGI [42]: 2.59 µM; GI50 [43]: < 0.01 µM and 0.00218 µM; GI50 [44]: 1.17 µM and 1.2 µM; TGI [44]: 4.49 µM and > 8.87 µM; GI50 [45]: 0.902 µM and 0.77 µM; TGI [45]: 2.52 µM and 5.37 µM; GI50 [46]: 1.29 µM and > 2.87 µM; TGI [46]: 20.1 µM and > 7.88 µM; GI50 [47]: 1.04 µM and 0.598 µM; TGI [47]: 24.7 µM and > 5.21 µM; GI50 [48]: 1.11 µM and 0.695 µM; TGI [48]: 4.38 µM and 3.79 µM; GI50 [49]: 10.9 µM and > 4.59 µM; TGI [49]: 34.7 µM and > 10 µM; GI50 [50]: 0.113 µM and 0.181 µM; TGI [50]: 1.93 µM and 4.73 µM; GI50 [51]: 0.899 µM and 1.37 µM; TGI [51]: 2.29 µM and > 10 µM; GI50 [52]: 1.35 µM and 1.48 µM; TGI [52]: 2.99 µM and 5.63 µM; GI50 [53]: 0.755 µM; TGI [53]: 2.81 µM; GI50 [54]: 1.65 µM and 0.927 µM; TGI [54]: 3.22 µM and > 6 µM; GI50 [55]: 1.41 µM and > 4.55 µM; TGI [55]: 4.27 µM and > 10 µM; GI50 [56]: 1.22 µM and 1.51 µM; TGI [56]: 4.44 µM and > 7.81 µM; GI50 [57]: 0.491 µM and 0.502 µM; TGI [57]: 2.05 µM and 2.62 µM; GI50 [58]: 0.724 µM and 0.82 µM; TGI [58]: 2.29 µM and > 5.73 µM
